Data on 3 compounds can be found in patent US5304604A, “Hydroxamic acid collagenase inhibotors” (British Bio-technology Limited, priority 1988, dated 1994).

For one assay, the target named is T1, collagenase (Homo sapiens, UniProt P03956).
T1 sequence (P03956 100-469): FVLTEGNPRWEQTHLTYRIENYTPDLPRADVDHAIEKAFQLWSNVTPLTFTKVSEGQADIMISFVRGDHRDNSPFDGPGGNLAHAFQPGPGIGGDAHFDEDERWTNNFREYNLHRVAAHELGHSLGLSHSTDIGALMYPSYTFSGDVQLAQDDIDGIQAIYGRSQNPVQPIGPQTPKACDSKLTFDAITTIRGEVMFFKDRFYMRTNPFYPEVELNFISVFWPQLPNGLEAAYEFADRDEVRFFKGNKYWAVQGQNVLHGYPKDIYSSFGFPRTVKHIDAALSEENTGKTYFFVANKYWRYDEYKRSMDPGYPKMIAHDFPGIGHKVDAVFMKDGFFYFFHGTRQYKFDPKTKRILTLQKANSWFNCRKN
Nature of the assay: Collagenase Inhibition Activity (procedure of Cawston and Barrett). Conditions: for IC50: acetylated 14C collagen, 37°, 16 hours, pH 7.5, read-out: IC50 (inhibitor concentration effecting 50% inhibition of the collagenase). The format is biochemical.

For another assay, the target named is stromelysin (Homo sapiens, UniProt P08254). Nature of the assay: Stromelysin Inhibition Activity (procedure of Cawston et al). The assay is classed as biochemical. The following applies: for protoglycanase inhibiting activity, in words: protoglycanase = stromelysin (b7). The procedure: The potency of compounds of general formula I to act as inhibitors of collagenase (a metalloprotease involved in tissue degradation) was determined by the procedure of Cawston and Barrett, (Anal. Biochem., 99, 340-345, 1979) and their potency to act as inhibitors of stromelysin was determined using the procedure of Cawston et al (Biochem. J., 195, 159-165 1981), both of which techniques are to be described more fully in the examples and, to the extent that the law allows, are incorporated by reference herein.
stromelysin, sequence (P08254 100-477): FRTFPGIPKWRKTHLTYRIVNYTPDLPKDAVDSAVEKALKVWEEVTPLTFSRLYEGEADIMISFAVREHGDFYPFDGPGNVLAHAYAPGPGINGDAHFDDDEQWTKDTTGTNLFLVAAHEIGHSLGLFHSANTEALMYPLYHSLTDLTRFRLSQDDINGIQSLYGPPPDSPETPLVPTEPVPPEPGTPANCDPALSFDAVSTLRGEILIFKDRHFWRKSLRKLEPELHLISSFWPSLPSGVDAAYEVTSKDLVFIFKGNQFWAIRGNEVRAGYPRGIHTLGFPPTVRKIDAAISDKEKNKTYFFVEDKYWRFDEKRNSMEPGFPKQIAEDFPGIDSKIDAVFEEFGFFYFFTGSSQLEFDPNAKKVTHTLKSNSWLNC

In the case of `CC(C)C[C@@H](C(=O)N[C@@H](Cc1ccccc1)C(=O)NCCN1CCOCC1)[C@H](C)C(=O)NO` [Example 11, [4-(N-Hydroxyamino)-2R-isobutyl-3S-methylsuccinyl]-L-phenylalanine-N-[4-(2-aminoethyl)-morpholino]amide], the “collagenase-inhibiting activity, in words” value on collagenase is on record as “good”. In addition, the IC50 amounted to 15 nM on collagenase and 50 nM on stromelysin (14C acetylated casein, 37° C., 16 hours, pH 7.5, read-out: IC50 (inhibitor concentration effecting 50% inhibition of the stromelysin)). Moreover, on stromelysin, the “protoglycanase inhibiting activity, in words” value is given as “good”.
`CC(C)C[C@H](CC(=O)NO)C(=O)N[C@@H](Cc1ccccc1)C(=O)NCc1cccnc1` [Example 6, [4-(N-Hydroxyamino)-2R-isobutylsuccinyl]-L-phenylalanine-N-(3-aminomethylpyridine)amide]: on collagenase, the “collagenase-inhibiting activity, in words” value is reported as “good” and the IC50 was determined as 20 nM. Moreover, the “protoglycanase inhibiting activity, in words” value on stromelysin was “good”.
With `CC(C)C[C@H](CC(=O)NO)C(=O)N[C@@H](Cc1ccccc1)C(=O)NCCN1CCCC1` [Example 3, [4-(N-Hydroxyamino)-2R-isobutylsuccinyl]-L-phenylalanine-N-[1-(2-aminoethyl)-pyrrolidine]amide], on collagenase, the IC50 was determined as 70 nM.
